Assay results: paper PMC6270864, “Identification of Two Novel α1-AR Agonists Using a High-Throughput Screening Model” (Molecules, 2014)

Columns and labels:
[1] = biological target: T1, human α1A-adrenoceptor (ADRA1A) expressed in HEK293 cells (Homo sapiens, UniProt P35348); test: Dual-luciferase CRE reporter HTS assay, inhibition of PE-induced CRE activation (RIP); format: cell-based; details: relative inhibitory potency = (RLU PE alone − RLU PE+antagonist)/RLU PE alone
T1 construct: eGFP; host or cells: HEK293 (transient, Lipofectamine 2000)
T1 sequence (P35348 1-466): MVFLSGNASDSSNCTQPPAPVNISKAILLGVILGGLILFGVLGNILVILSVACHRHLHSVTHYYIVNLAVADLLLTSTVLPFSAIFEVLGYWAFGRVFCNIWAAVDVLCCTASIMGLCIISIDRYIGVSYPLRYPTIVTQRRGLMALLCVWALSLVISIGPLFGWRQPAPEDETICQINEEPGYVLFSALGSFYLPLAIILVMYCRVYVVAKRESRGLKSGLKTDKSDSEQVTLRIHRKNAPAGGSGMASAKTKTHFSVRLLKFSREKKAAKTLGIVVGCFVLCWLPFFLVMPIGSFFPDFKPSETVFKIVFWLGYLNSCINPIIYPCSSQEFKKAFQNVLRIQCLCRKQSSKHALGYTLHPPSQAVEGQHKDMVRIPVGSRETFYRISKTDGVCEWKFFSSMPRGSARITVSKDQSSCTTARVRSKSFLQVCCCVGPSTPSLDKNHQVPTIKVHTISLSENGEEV
Description: (§1) Furthermore, the relative inhibitory potency (RIP) could be used to improve the readability of the results. Which was determined relative to that of PE-induced group ([…]), and calculated using the following formula [15]: RIP = (RLUPE alone − RLUPE+antagonist)/RLUPE alone(1)
(§2) HEK293 cells were plated at a density of 10^5 […] in 96-well plates in 100 μL of DMEM basic medium containing 10% fetal bovine serum, 100 U/mL penicillin, and 0.1 mg/mL streptomycin. After overnight incubation, human ADRA1-expression vectors, namely, ADRA1A, ADRA1B, and ADRA1D, were co-transfected with reporter vectors (CRE, SRE, AP1, NFAT, and NF-кB) and pGL4.74 [hRluc/TK] (included as a control for transfection efficiency) using Lipofectamine 2000 transfection reagent (Invitrogen Life Technologies, Carlsbad, CA, USA). The medium was removed after 4 h and replaced with high-glucose DMEM for 18 h. Cells were then treated with agonists (at concentrations of 0.01–20 μM) and incubated for 8 h.
(§3) Firefly and Renilla luciferase activities, which are indicated as RLUs, were determined using Dual-Glo luciferase assay kits (Promega) according to the manufacturer’s instructions. RLUs were measured using a luminometer (GloMaxTM 96-Microplate Luminometer, Promega) and are reported as the mean ± SEM of three individual experiments. For agonists, fold of induction = RLUinduced/RLUuninduced. For antagonists, % of control = 100 × RLU (agonist + antagonist)/RLU(agonist alone). All RLUs were normalized against firefly RLUs/Renilla RLUs. […] The pKB of the antagonist was calculated by plotting log (dose ratio–1) against the antagonist dose (μM) and subjecting the data to Schild regression, where the intercept of the x-axis represents the pKB.

[2] = biological target: T2, human α1B-adrenoceptor (ADRA1B) expressed in HEK293 cells (Homo sapiens, UniProt P35368); test: as above; format: cell-based; details: relative inhibitory potency = (RLU PE alone − RLU PE+antagonist)/RLU PE alone
T2 construct: eGFP; host or cells: HEK293 (transient, Lipofectamine 2000)
T2 sequence (P35368 1-520): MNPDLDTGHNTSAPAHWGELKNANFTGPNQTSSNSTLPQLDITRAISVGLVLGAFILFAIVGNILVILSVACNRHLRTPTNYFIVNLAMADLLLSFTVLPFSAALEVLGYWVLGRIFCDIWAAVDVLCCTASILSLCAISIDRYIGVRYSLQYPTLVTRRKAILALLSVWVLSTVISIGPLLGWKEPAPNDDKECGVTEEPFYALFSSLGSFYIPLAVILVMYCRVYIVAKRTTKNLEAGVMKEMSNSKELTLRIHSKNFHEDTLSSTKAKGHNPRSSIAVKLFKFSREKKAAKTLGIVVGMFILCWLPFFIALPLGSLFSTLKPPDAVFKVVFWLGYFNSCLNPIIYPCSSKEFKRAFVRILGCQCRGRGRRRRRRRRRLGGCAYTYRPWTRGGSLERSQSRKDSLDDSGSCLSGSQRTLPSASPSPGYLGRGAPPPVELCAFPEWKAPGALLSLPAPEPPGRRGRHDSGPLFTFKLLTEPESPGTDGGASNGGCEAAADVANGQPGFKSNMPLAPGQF
Description: as §1, §2, §3

[3] = biological target: T3, human α1D-adrenoceptor (ADRA1D) expressed in HEK293 cells (Homo sapiens, UniProt P25100); test: as above; format: cell-based; details: relative inhibitory potency = (RLU PE alone − RLU PE+antagonist)/RLU PE alone
T3 construct: eGFP; host or cells: HEK293 (transient, Lipofectamine 2000)
T3 sequence (P25100 1-572): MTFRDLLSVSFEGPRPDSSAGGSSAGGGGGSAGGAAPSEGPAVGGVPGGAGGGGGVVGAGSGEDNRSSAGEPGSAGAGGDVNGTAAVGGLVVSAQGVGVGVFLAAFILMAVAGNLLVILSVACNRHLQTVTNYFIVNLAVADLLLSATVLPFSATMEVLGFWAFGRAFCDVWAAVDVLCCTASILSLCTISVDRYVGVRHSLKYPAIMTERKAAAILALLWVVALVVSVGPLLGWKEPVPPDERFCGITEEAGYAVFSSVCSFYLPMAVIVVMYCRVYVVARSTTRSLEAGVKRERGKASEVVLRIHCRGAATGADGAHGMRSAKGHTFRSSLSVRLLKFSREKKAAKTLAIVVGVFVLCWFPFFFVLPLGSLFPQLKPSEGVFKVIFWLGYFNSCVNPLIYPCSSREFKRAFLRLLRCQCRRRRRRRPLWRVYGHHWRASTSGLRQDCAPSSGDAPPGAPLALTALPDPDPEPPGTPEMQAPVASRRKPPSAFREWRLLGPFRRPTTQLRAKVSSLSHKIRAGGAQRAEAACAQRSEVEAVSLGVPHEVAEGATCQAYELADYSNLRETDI
Description: as §1, §2, §3

α1-ARs (α1A, α1B, α1D) = details: α1-AR subtype selectivity, cited from earlier work
[4] = biological target: T2, human α1B-adrenoceptor (ADRA1B) expressed in HEK293 cells; test: Dual-luciferase CRE reporter HTS assay, agonist mode; format: cell-based; details: HEK293, 8 h, read-out: EC50 α1B (agonistic activity)
Description: as §2, §3

[5] = biological target: T3, human α1D-adrenoceptor (ADRA1D) expressed in HEK293 cells; test: as above; format: cell-based; details: HEK293, 8 h, read-out: EC50 α1D (agonistic activity)
Description: as §2, §3

[6] = system: DU145 human prostate cancer cell line; test: CCK-8 assay, cytotoxic / anti-proliferative activity; format: cell-based; details: DU-145, CCK-8, 24 h exposure, mean ± SD, three experiments
Description: (§4) Cell proliferation was measured with the Cell Counting Kit-8 (CCK-8) assay kit (Dojindo Corp., Kumamoto, Japan). Cells were harvested during logarithmic growth phase and seeded in 96-well plates at a density of 1 × 10^5 cells/mL, and cultured at 37 °C in a humidified incubator (5% CO2) for 24 h, followed by exposure to various concentrations of compounds tested for 24 h. Subsequently 10 μL of CCK-8 (Dojindo) was added to each well, the cells were then incubated for an additional 1 h at 37 °C to convert WST-8 into formazan. Cell growth inhibition was determined by measuring the absorbance (Abs) at λ = 450 nm using amicroplate reader. Three independent experiments were performed. Cell growth inhibition was calculated according to the following equation: Growth inhibition = (1 − OD of treated cells/OD of control cells) × 100% (2)
(§5) The half maximal inhibitory concentrations (IC50) were obtained from liner regression analysis of the concentration-response curves plotted for each tested compound.

[7] = system: LNCaP human prostate cancer cell line; test: as above; format: cell-based; details: CCK-8, 24 h exposure, mean ± SD, three experiments
Description: as §4, §5

[8] = system: PC-3 human prostate cancer cell line; test: as above; format: cell-based; details: CCK-8, 24 h exposure, mean ± SD, three experiments
Description: as §4, §5

[9] = system: RWPE-1 human prostate epithelial cell line; test: as above; format: cell-based; details: for cytotoxic effects on human epithelial prostate normal cells RWPE-1: CCK-8; for IC50: Homo sapiens, RWPE-1, CCK-8, 24 h exposure, mean ± SD, three experiments
Description: as §4, §5

[10] = system: α1-ARs (α1A, α1B, and α1D); test: Dual-luciferase CRE reporter HTS assay, agonist mode, summary over subtypes; format: cell-based, human; details: for EC50: range over the three subtypes and both compounds, read-out: EC50, agonistic activities on α1-ARs (α1A, α1B, and α1D)
Description: as §2, §3

[11] = system: human prostate cancer cell lines (PC-3, LNCaP and DU145); test: CCK-8 assay, summary over tested cancer cell lines; format: cell-based; details: range over PC-3, LNCaP, DU145 and both compounds, read-out: IC50, cytotoxic activities against tested cancer cell lines
Description: as §4, §5

[12] = biological target: T1, human α1A-adrenoceptor (ADRA1A) expressed in HEK293 cells; test: Dual-luciferase CRE reporter HTS assay, agonist mode; format: cell-based; details: HEK293, 8 h, read-out: EC50 α1A (agonistic activity)
Description: as §2, §3

SMILES	RIP Values (Mean ± S.E.M, n = 4) α1A [1]	RIP Values (Mean ± S.E.M, n = 4) α1B [2]	RIP Values (Mean ± S.E.M, n = 4) α1D [3]	EC50 [5] [µM]	IC50 [6] [µM]	IC50 [7] [µM]	IC50 [8] [µM]	IC50 [9] [µM]	also measured
COc1cc2nc(N3CCN(C(=O)C4CCCO4)CC3)nc(N)c2cc1OC (stereo not drawn) [Terazosin, terazosin]	0.89 ± 0.05	0.91 ± 0.02	0.49 ± 0.02	–	–	–	–	–	Reported Selectivity (α1-ARs (α1A, α1B, α1D)): Nonselective [17]; Reported Selectivity (Table S1) (α1-ARs (α1A, α1B, α1D); ref 2 (supplement)): Nonselective
COc1cc2nc(N3CCN(C(=O)OCc4ccccc4)[C@H](C(=O)NC(C)(C)C)C3)nc(N)c2cc1OC [Compound L-765314]	0.53 ± 0.08	0.86 ± 0.01	0.30 ± 0.11	–	–	–	–	–	–
COc1ccccc1N1CCN(CCCNc2c(C)c(=O)n(C)c(=O)n2C)CC1 [5-Methylurapidil, 5-methylurapidil]	0.83 ± 0.03	0.63 ± 0.07	0.51 ± 0.09	–	–	–	–	–	–
Cc1ccc(S(=O)(=O)OCCc2ccc(CN3C(=O)c4ccccc4C3=O)cc2)cc1 [CHE3]	–	–	–	47.2	11.1 ± 1.07	47 ± 1.24	91.3 ± 1.13	30.7 ± 0.66	EC50 [4]: 42.7 µM; cytotoxic effects on human epithelial prostate normal cells RWPE-1 [9]: exhibited cytotoxic effects; EC50 [10]: 25.3 to 47.2 µM; subtype selectivity in the HTS assay ([10]; α1A, α1B, α1D): did not display significant subtype selectivity; IC50 [11]: 11.1 to 91.3 µM
COc1ccccc1N1CCN(CC(O)COc2cccc3ccccc23)CC1 (stereo not drawn) [Naftopidil, naftopidil, reference compound]	0.79 ± 0.09	0.77 ± 0.02	0.93 ± 0.01	–	34.58 ± 0.31	22.4 ± 0.61	42.1 ± 0.79	52 ± 1.51	–
Cc1ccc(S(=O)(=O)OCCc2ccc(COc3ccc4c(c3)OCO4)cc2)cc1 [CHK3]	–	–	–	34.3	39.1 ± 0.81	51.5 ± 1.08	55.3 ± 1.09	31.7 ± 0.61	EC50 [12]: 42.5 µM; EC50 [4]: 35.2 µM; cytotoxic effects on human epithelial prostate normal cells RWPE-1 [9]: exhibited cytotoxic effects; EC50 [10]: 25.3 to 47.2 µM; IC50 [11]: 11.1 to 91.3 µM
CNC[C@H](O)c1cccc(O)c1 [Phenylephrine, phenylephrine, reference compound]	–	–	–	2.68	–	–	–	–	–
